Assay results: ChEMBL document CHEMBL3886663, “COMPOUNDS AND USES” (2016)

target: T1, Leukotriene C4 synthase (Homo sapiens, UniProt Q16873); assay: Recombinant human LTC4 synthase is expressed in […] and the purified enzyme is dissolved in 25 mM tris-buffer pH 7.8 supplemented with 0.1 mM glutathione (GSH) and stored at −80 °C. […] The buffer is used as background. Runs are performed in duplicates. […] The reaction is stopped after 1 min by addition of double the reaction volume of a stop solution (MeOH:H2O:acetic acid 70:30:1).
T1 sequence (Q16873 whole entry): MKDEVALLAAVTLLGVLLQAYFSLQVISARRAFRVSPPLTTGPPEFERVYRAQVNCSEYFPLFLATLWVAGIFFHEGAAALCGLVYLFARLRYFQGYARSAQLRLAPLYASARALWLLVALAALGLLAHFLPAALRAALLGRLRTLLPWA

IC50 [nM]	Compound
588	COc1cc(N(Cc2cc(Cl)cc3c2OCO3)CC2CC2)cnc1C(=O)C1CC1C(=O)O (stereo not given)
53	COc1cc(N(Cc2ccc(C(F)(F)F)cc2F)CC2CC2)cnc1C(=O)C1CC1C(=O)O (stereo not given)
2180	COc1cc(N(Cc2ccc(-c3ccccc3)cc2)CC2CC2)cnc1C(=O)C1CC1C(=O)O (stereo not given)
66	COc1cc(N(Cc2cccc3ccccc23)CC2CC2)cnc1C(=O)C1CC1C(=O)O (stereo not given)
171	COc1cc(N(Cc2cccc(C)c2)CC2CC2)cnc1C(=O)C1CC1C(=O)O (stereo not given)
445	COc1cc(N(CC2CC2)c2cccc3c(C)ccnc23)cnc1C(=O)C1CC1C(=O)O (stereo not given)
478	COc1cc(N(Cc2cc(F)cc3c2OCOC3)CC2CC2)cnc1C(=O)C1CC1C(=O)O (stereo not given)
800	COc1cc(N(Cc2c(Cl)cccc2Cl)CC2CC2)cnc1C(=O)C1CC1C(=O)O (stereo not given)
56	COc1cc(N(CC2CC2)c2ccc(C)c3ccccc23)ncc1C(=O)C1CC1C(=O)O (stereo not given)

Compound	IC50 [nM]
COc1cc(N(Cc2ccc(C)cc2)CC2CC2)cnc1C(=O)C1CC1C(=O)O (stereo not given)	22
